Measurements: US20150030583A1, “Methods of Treating Serosal Cancer” (SLOAN KETTERING INSTITUTE FOR CANCER RESEARCH, priority 2011, published 2015)
Like-named read-outs stand apart in the source and are kept apart here.

What was measured:
catena cells [1] = assay: Morphological observation of treated catenae under the microscope; format: cell-based; details: for morphological change of treated catenae: microscope observation; for cells seen in cultures treated with high concentrations of compounds: 100 μM (rapamycin 25 μM, lovastatin acid 50 μM), cells re-entered the cell cycle without drug
Ovcar3-GTL catenae = assay: Ovcar3-GTL catena drug sensitivity / proliferation screen (alamarBlue, 384-well); details: for Increase in Resistance Day6/Day 1: ratio of IC50 day 6 to day 1, Ovcar3-GTL catenae; for Increased Resistance of catena: catena with established glycocalyx versus monolayers
[2] = test system: established tumor spheroids; assay: Established tumor spheroid drug sensitivity (alamarBlue)
[3] = test system: Ovcar5 monolayer (mesenchymal) cells; assay: Ovarian cancer monolayer drug sensitivity (alamarBlue), Ovcar5; format: cell-based
Method: (§1) The foregoing total of 29 compounds were tested in parallel on ovarian cancer monolayer cells by seeding 100 Ovcar3 monolayer (epithelial) or 25 Ovcar5 monolayer (mesenchymal) cells in 384-well plates. Drugs were added 4 days after cell seeding and cell viability was analyzed by alamarBlue staining. In general, catena cells with an established glycocalyx were on average 4-8 fold more resistant to these compounds when compared to monolayers. […]

[4] = test system: Ovcar3 monolayer (epithelial) cells; assay: Ovarian cancer monolayer drug sensitivity (alamarBlue), Ovcar3; format: cell-based
Method: as §1

catena cells [5] = assay: Combination drug screening: paclitaxel after PEGylated enzyme treatment; format: cell-based
Method: Twenty-five […] seeded into 384-well plates. After 5 days, cells were treated with either PEGylated hyaluronidase, PEGylated collagenase or both for 10 minutes at 37° C. Without removing the enzymes, paclitaxel was added over a series of dilutions, followed by alamarBlue addition on day 9 with absorbance measured two days later.

[6] = test system: glycocalyx surrounding a catena; assay: Particle exclusion experiment with red blood cells; format: cell-based; details: brief incubation with enzyme, RBCs overnight
Method: To visualize the glycocalyx surrounding a catena, a particle exclusion experiment was conducted using red blood cells (RBCs). Catenae were mechanically dissociated by pipetting or by brief incubation with hyaluronidase as before. RBCs from human peripheral blood were added and the mixture was incubated overnight in culture media. The cells were observed under the light microscope for the presence of a glycocalyx separating catena cells from the RBCs.

[7] = Viscosity of catena culture supernatant after enzyme treatment; details: a few drops 10 mg/mL enzyme
Method: In contrast, Ovcar3-GTL epithelial cells were 98% positive for CA125 by FACS and secreted 800 units/ml of CA125 into culture media. For the ELISA, cell supernatants were collected by spinning the cultures at 300×g for 5 min to remove cells and assayed by CA125 ELISA using an automated instrument, ADVIA Centaur XP Immunoassay System (Siemens Healthcare Diagnostics Inc.).
Hyaluronan is a glycosaminoglycan found in extracellular matrix and functions to provide microenvironmental cues in a number of biological processes, including tumor development [Toole, 2004]. Supernatants prepared as above were treated with a few drops 10 mg/mL hyaluronidase (Sigma) in deionized water.

catena cells [8] = assay: Growth of catena cells upon disruption of the glycocalyx; format: cell-based
Method: To investigate the how catena cells grow upon disruption of the glycocalyx, catenae were dissociated to single cells with hyaluronidase treatment and plated in tissue culture treated flasks with or without 10% hyaluronidase enzyme solution (10 mg/ml) to prevent the formation of glycocalyx. In parallel, catenae were dissociated mechanically and plated in the absence of hyaluronidase.

[9] = test system: low molecular weight complex of collagen and hyaluronan; assay: Western blot (anti-COL1A2) of catena culture supernatant; format: biochemical
From the text: The glycocalyx of the catena has two major components, i.e., hyaluronan and collagen, which interact and form a stable complex. […] Briefly, the supernatant fraction of catena cell cultures was separated from the cells by centrifugation. The supernatant was run in an SDS-PAGE gel and blotted with the anti-COL1A2 antibody. This complex was sensitive to hyaluronidase treatment but was not affected by collagenase type 1, 2 or 4 treatment. This hyaluronan-collagen complex could be important for the formation of catena glycocalyx and drug resistance or metastatic potential conferred to catena cells by the glycocalyx.

catena cells [10] = assay: In vitro clonogenicity assay of catena cells; format: cell-based; details: enzyme included in the clonogenic assay; attached cells
From the text: Catena cells were dissociated with hyaluronidase, allowed to attach to tissue culture plates and grown in the presence hyaluronidase for 7 days. Under these conditions, cells remained attached to tissue culture plates. The cells were harvested and subjected to an in vitro clonogenicity assay in the presence and absence of hyaluronidase. In parallel, mechanically-dissociated catena were subjected to the in vitro clonogenicity assay in the presence and absence of hyaluronidase.

[11] = 24 h, read-out: IC50 (μM) Addition on Day 1, Ovcar3-GTL catenae, compound added one day after seeding (cells predominantly lacking a glycocalyx)
[12] = 144 h, read-out: IC50 (μM) Addition on Day 6, Ovcar3-GTL catenae, compound added six days after seeding (established or substantial glycocalyx)
[13] = read-out: IC50 (μM) Addition on Day 1, Ovcar3-GTL catenae, compound added one day after seeding (cells predominantly lacking a glycocalyx)
[14] = read-out: IC50 (μM) Addition on Day 6, Ovcar3-GTL catenae, compound added six days after seeding (established or substantial glycocalyx)
[15] = 24 h, read-out: IC50 (μM) Addition on Day 1
[16] = 144 h, read-out: IC50 (μM) Addition on Day 6
[17] = 25 cells seeded, drugs added 4 days after seeding, read-out: IC50 (μM) Ovcar5 monolayer
[18] = 100 cells seeded, drugs added 4 days after seeding, read-out: IC50 (μM) Ovcar3 monolayer

Molecule	IC50 (Ovcar3-GTL catenae; [11]) [nM]	IC50 (Ovcar3-GTL catenae; [12]) [nM]	Increase in Resistance Day6/Day 1 (Ovcar3-GTL catenae)	cells seen in cultures treated with high concentrations of compounds (catena cells [1])	IC50 (Ovcar3-GTL catenae; [13]) [nM]	IC50 (Ovcar3-GTL catenae; [14]) [nM]	further results
O=c1[nH]cc(F)c(=O)[nH]1 [5-FU, 5-fluorouracil]	3000	> 100000	33 fold				morphological change of treated catenae (catena cells [1]): formation of fused chains
Nc1ccn([C@@H]2O[C@H](CO)[C@@H](O)[C@@H]2O)c(=O)n1 [Ara-C]			2,000 fold	live, large single cells, i.e., cells arrested at mitosis	50	> 100000	
O=C(CCCCCCC(=O)Nc1ccccc1)NO [SAHA, Vorinostat]							morphological change of treated catenae (catena cells [1]): formation of tight spheroids
C/C1=C/C[C@@H](/C(C)=C/c2csc(C)n2)OC(=O)C[C@H](O)C(C)(C)C(=O)[C@H](C)[C@@H](O)[C@@H](C)CCC1 [dEpoB]			250,000 fold		0.4	> 100000	
Cc1nc(Nc2ncc(C(=O)Nc3c(C)cccc3Cl)s2)cc(N2CCN(CCO)CC2)n1 [dasatinib]	> 100000	> 100000					
COc1cccc2c1C(=O)c1c(O)c3c(c(O)c1C2=O)C[C@@](O)(C(C)=O)C[C@@H]3O[C@H]1C[C@H](N)[C@H](O)[C@H](C)O1 [daunarubacin]			133 fold		6	800	
COc1cc2c(cc1OC)[C@@H]1C(=O)c3ccc4c(c3O[C@@H]1CO2)C=CC(C)(C)O4 [deguelin]							IC50 ([2]; read-out: spheroid IC50): 400 nM; additional resistance conferred by spheroid formation ([2]; spheroid versus catena IC50): 15 fold; IC50 (Ovcar3-GTL catenae; [15]): 25 nM; IC50 (Ovcar3-GTL catenae; [16]): 25 nM
c1ccc2c(c1)[I+]c1ccccc1-2 [diphenyleneiodonium chloride]							toxicity to catena cells with a glycocalyx coat (Ovcar3-GTL catenae): exert toxicity
COc1cccc2c1C(=O)c1c(O)c3c(c(O)c1C2=O)C[C@@](O)(C(=O)CO)C[C@@H]3O[C@H]1C[C@H](N)[C@H](O)[C@H](C)O1 [doxorubicin]	25	800	32 fold				
COc1cc([C@@H]2c3cc4c(cc3[C@@H](O[C@@H]3O[C@@H]5CO[C@@H](C)O[C@H]5[C@H](O)[C@H]3O)[C@H]3COC(=O)[C@H]23)OCO4)cc(OC)c1O [etoposide]	400	50000	125 fold				
C/C(=C\c1csc(C)n1)[C@@H]1C/C=C(/C(F)(F)F)C/C=C/[C@H](C)[C@H](O)[C@@H](C)C(=O)C(C)(C)[C@@H](O)CC(=O)O1 [fludelone]				live, large single cells, i.e., cells arrested at mitosis	≤ 0.012	> 100000	IC50 [3, 17]: 0.0004 µM; IC50 [4, 18]: 0.0008 µM; Increased Resistance of catena (Ovcar3-GTL catenae): 125,000 fold
CC[C@H](C)C(=O)O[C@H]1C[C@@H](C)C=C2C=C[C@H](C)[C@H](CC[C@@H](O)C[C@@H](O)CC(=O)O)[C@H]21 [lovastatin acid]	25000	50000	2 fold	live, large single cells, i.e., cells arrested at mitosis			
CO[C@@]12[C@H](COC(N)=O)C3=C(C(=O)C(C)=C(N)C3=O)N1C[C@@H]1N[C@@H]12 [mitomycin-C]			60 fold		50	3000	
CC(=O)O[C@H]1C(=O)[C@@]2(C)[C@H]([C@H](OC(=O)c3ccccc3)[C@]3(O)C[C@H](OC(=O)[C@H](O)[C@@H](NC(=O)c4ccccc4)c4ccccc4)C(C)=C1C3(C)C)[C@]1(OC(C)=O)CO[C@@H]1C[C@@H]2O [paclitaxel]	≤ 0.012	> 100000		live, large single cells, i.e., cells arrested at mitosis			IC50 ([3]; Homo sapiens, OVCAR-5, 96 h, 25 cells seeded, drugs added 4 days after seeding, read-out: IC50 (μM) Ovcar5 monolayer): 0.025 µM; IC50 ([3]; Homo sapiens, OVCAR-5, subnanomolar to no more than 50 nM, read-out: IC50 Ovcar5 monolayer cells): ≤ 0.05 µM; IC50 ([4]; Homo sapiens, OVCAR-3, 96 h, 100 cells seeded, drugs added 4 days after seeding, read-out: IC50 (μM) Ovcar3 monolayer): 0.025 µM; IC50 ([4]; Homo sapiens, OVCAR-3, subnanomolar to no more than 50 nM, read-out: IC50 Ovcar3 monolayer cells): ≤ 0.05 µM; decrease of paclitaxel IC50 after PEGylated hyaluronidase (catena cells [5]; enzyme 10 min at 37° C. on day 5 before paclitaxel): 2.5 fold; decrease of paclitaxel IC50 after combination of PEGylated hyaluronidase and PEGylated collagenase (catena cells [5]; enzymes 10 min at 37° C. on day 5 before paclitaxel): 16 fold; IC50 (Ovcar3-GTL catenae; Homo sapiens, OVCAR-3, read-out: IC50 (μM) Ovcar3 catena, catena cells with an established glycocalyx (Table D)): > 100000 nM; Increased Resistance of catena (Ovcar3-GTL catenae): 4,000 fold
CO[C@H]1C[C@@H]2CC[C@@H](C)[C@@](O)(O2)C(=O)C(=O)N2CCCC[C@H]2C(=O)O[C@H]([C@H](C)C[C@@H]2CC[C@@H](O)[C@H](OC)C2)CC(=O)[C@H](C)/C=C(\C)[C@@H](O)[C@@H](OC)C(=O)[C@H](C)C[C@H](C)/C=C/C=C/C=C/1C [rapamycin]	12000	25000	2 fold				
CC[C@@]1(O)C(=O)OCc2c1cc1n(c2=O)Cc2cc3c(CN(C)C)c(O)ccc3nc2-1 [topotecan]	20	> 100000	5,000 fold	live, large single cells, i.e., cells arrested at mitosis			
COc1ccc(CCN(C)CCCC(C#N)(c2ccc(OC)c(OC)c2)C(C)C)cc1OC (stereo not drawn) [verapamil]							IC50 (Ovcar3-GTL catenae; [15]): > 100000 nM; IC50 (Ovcar3-GTL catenae; [16]): > 100000 nM
hyaluronidase							morphological change of treated catenae (catena cells [1]; listed as non-PEGylated hyaluronidase): caused aggregation of catena cells; glycocalyx coat in RBC particle exclusion [6]: completely lacked a glycocalyx; viscosity of culture supernatant [7]: rapidly reduced the viscosity; growth of catena cells, continuous enzyme treatment (catena cells [8]; 10% enzyme solution (10 mg/ml) in culture): attached to tissue culture plates and formed epithelial and mesenchymal monolayers; growth of catena cells, brief enzyme treatment, plated without enzyme (catena cells [8]; dissociated to single cells with enzyme): no longer formed free floating chains but rather proliferated as irregular aggregates in suspension; effect on hyaluronan-collagen complex (less than 20 kDa) [9]: sensitive; colony size in clonogenic assay (catena cells [10]): further reduced
iso-oxazole-fludelone			33,333 fold	live, large single cells, i.e., cells arrested at mitosis	3	> 100000	IC50 [3, 17]: 0.012 µM; IC50 [4, 18]: 0.05 µM; Increased Resistance of catena (Ovcar3-GTL catenae): 2,000 fold
